The values that follow come from US7271158B2, “Treatment of rumen acidosis with α-amylase inhibitors” (Pfizer Inc., priority 2000, dated 2007).

Some results are limits rather than exact numbers.

For assay [1], the system named is E. faecalis. The experiment in a line: Minimum inhibitory concentrations in aerobes (agar dilution).
For assay [2], the system named is chronic rumen acidosis induced in fistulated cattle. The experiment in a line: In vivo testing in fistulated cattle (induced chronic rumen acidosis). Set-up: species or system Hereford×Friesian steers. The settings on record: 4.0 g/trt through fistula. An excerpt: In Vivo Testing in Fistulated Cattle Objective: To determine the effect of the agent for testing, in this case acarbose, on chronic rumen acidosis induced in fistulated cattle. A rumen pH profile representative of chronic acidosis was induced by stepwise increase in the level of concentrate feeding of a specified diet and a reduction in the roughage offered. This was followed by treatment of each animal with acarbose, administered via a permanent rumen fistula, to assess its ability to normalise rumen pH. Experimental Animals: Six fistulated Hereford×Friesian steers, weighing 170-230 kgs (supplied by […] Calves Ltd. […], Ceredigion) Treatment: Glucobay® 100. Acarbose 100 mgs per tablet. Management: The cattle were fed GH651 cattle high cereal beef pellets (variable amount) with barley straw (variable amount) divided over two equal feeds, given at around 08.00 hr and 14.30 hr each day. Precise feeding times were recorded. Water was available ad-lib. Cattle were individually housed in pens (9 square meters per pen) in a building environmentally controlled to 16° C. [table] While chronic acidosis was being induced, manual pH measurements were taken approximately 5 and 8 hours post-morning feed. Rumen fluid samples were taken for VFA and lactate analysis. […] First Sense Recorder). […] Rumen fluid samples (10 ml) were taken twice daily for measurement of VFA levels, molar ratios and lactate levels. These were collected (by manually removing a sample of rumen content with a small stainless […], filtering and transferring to a 10 ml polypropylene vial) just before acarbose was added to the rumen at both dosing times. The pH probes were removed for cleaning and recalibration immediately pre-morning feed. Results: The daily pH curves were used to calculate the period that rumen pH was below pH 5.5, and therefore indicative of chronic acidosis.

Assay [3] relates to Salm. enteritidis. The experiment in a line: Minimum inhibitory concentrations in aerobes (agar dilution).
Assay [4] deals with rumen fluid supernatant amylases. In words: Rumen bacterial amylase assay, protocol 1 (Sigma amylase kit 577). In kind it is biochemical, rumen bacteria, Hereford×Friesian calves. The settings on record: rumen fluid amylase screen using Sigma kit 577. An excerpt: Rumen Bacterial Amylase Assay—Protocol 1
The enzymatic reactions involved in the assay are as follows:
5 ET-G7PNP→(α-amylase)→2 ET-G5+2 G2PNP+2 ET-G4+2 G3PNP+ET-G3+G4-PNP2 G2PNP+2 G3 PNP→(α-glucosidase)→4 PNP +10 glucose
α-Amylase hydrolyses 4,6-ethylidene-G7-PNP (ET-G7 PNP) to G2, G3 and G4 PNP fragments. α-Glucosidase (α-1,4-glucan glucohydrolase EC 3.2.1.3) hydrolyses G2PNP and G3PNP to yield p-nitrophenol and glucose. Five moles of substrate (ET-G7PNP) is hydrolysed to yield 4 moles of p-nitrophenol p-Nitrophenol absorbs light as 405 nm, and following a two minute lag period the rate of increase in absorbance at 405 nm is directly proportional to α-amylase activity in the well.
Rumen fluid was collected from 4-month-old Hereford×Friesian calves (125–135 kg, supplied by Cwmnant Calves Ltd. Cwmnant. Tregaron. Ceredigion) fed on diet GH 313. The rumen fluid was collected from slaughtered calves into pre-warmed vacuum flasks, as soon as possible after euthanasia. It was then filtered through a double layer of absorbent gauze (Absorbent gauze BP, GAUZ 4 from Robert Bailey plc, Stockport) to remove hay and feed particles. The liquid was centrifuged at a relative centrifugal force of 23,300 for 60 minutes, and the supernatant decanted, avoiding contamination from the loose top layer of the pellet by careful pouring. The supernatant was then aliquoted into 50 ml plastic tubes and frozen at […]. When required for use in an assay the rumen fluid supernatant was thawed by standing the tubes in cold water. Test compounds or controls were dispensed into the 96-well assay plate at 4 μl/well. 100 μl per well of Sigma amylase reagent 577 (made up to half the volume described in the instructions (i.e. 10 ml for a 577-20 vial)) was then added to each well, followed by 100 μl per well of rumen fluid supernatant. A T=0 reading at 405 nm was taken at this stage using an Anthos plate reader. The plate was then incubated at room temperature or 37° C. until an optical density window of approximately 1.000U was seen (typically one hour at 37° C. or three hours at room temperature). A second reading was taken at 405 nm, and the first reading subtracted from it. Active compounds cause a reduction in the optical density readings when compared to the control without the agent being tested.

For the compound `CC1OC(OC2C(CO)OC(OC3C(CO)OC(O)C(O)C3O)C(O)C2O)C(O)C(O)C1NC1C=C(CO)C(O)C(O)C1O` (stereo not shown) [Acarbose, acarbose], the MIC in assay [1] (E. faecalis 1.1.16), in assay [1] (E. faecalis 1.1.4), in assay [1] (E. faecalis 1.10.4), in assay [1] (E. faecalis 1.3.13), in assay [1] (E. faecalis 1.4.12) and in assay [1] (E. faecalis 1.6.6) was more than 128 µg/mL each time. Besides, the MIC in assay [1] (E. faecalis 1.9.5), in assay [1] (E. faecalis 28.5.7), in assay [1] (E. faecalis 28.6.9), in assay [1] (Enterococcus faecalis), in assay [3] (Salm. enteritidis B1218) and in assay [3] (Salm. enteritidis B1227) was more than 128 µg/mL throughout. For the same compound, the MIC in assay [3] (Salm. enteritidis B1231) is more than 128 µg/mL; in assay [3] (Salm. enteritidis B1232) it was more than 128 µg/mL; in assay [3] (Salm. enteritidis B1233), more than 128 µg/mL; in assay [3] (Salm. enteritidis B1235), more than 128 µg/mL; in assay [3] (Salm. enteritidis B1240), more than 128 µg/mL; in assay [3] (Salmonella enterica, ENTERITIDIS), more than 128 µg/mL. The “total VFA concentrations in rumen fluid” value in assay [2] (13:00 samples, treatment vs control phase) was “little difference”. For the same compound, the “VFA concentration in rumen fluid” value in assay [2] (14:00 samples, during the treatment period) is recorded as “fell”. Also, the “percentage of propionate in rumen fluid” value in assay [2] (all sampling times, during the treatment period) was “lower”. This compound registered an IC50 in assay [4] of 2.03 µM.
